Values quoted from earlier work in patent publication US20110118360A1, “AGENT FOR ACTIVATING STEM CELLS” (priority 2008, published 2011).

B1: Filgastrim: glycoprotein consisting of 175 amino acids obtained by expression of a human gene in E. coli (protein, chains of the INN, looked up)
chain: MTPLGPASSLPQSFLLKCLEQVRKIQGDGAALQEKLCATYKLCHPEELVLLGHSLGIPWAPLSSCPSQALQLAGCLSQLHSGLFLYQGLLQALEGISPELGPTLDTLQLDVADFATTIWQQMEELGMAPALQPTQGAMPAFASAFQRRAGGVLVASHLQSFLEVSYRVLRHLAQP
modifications: N-terminal methionine, E. coli expressed
notes: glycoprotein consisting of 175 amino acids obtained by expression of a human gene in E. coli

Tests used:
neutrophils = conditions: shortened from 5

Row | Molecule | effect on mesenchymal stem cells (mesenchymal stem cells) | effect on 26S proteasome activity (26S proteasome) | maturation period of neutrophils from the progenitor cells (neutrophils)
1 | CC(C)C[C@H](NC(=O)[C@H](Cc1ccccc1)NC(=O)c1cnccn1)B(O)O [bortesomib, [(1R)-3-methyl-1 [[(2S)-1-oxo-3-phenyl-2-[(pirasinilcarbonil)amino]propyl]amino]butyl]] | direct pharmacological effect on mesenchymal stem cells | highly selective reversible inhibitor | –
2 | B1 | – | – | 1 days
